Test results published in patent US7192906B2, “Substituted pyrazole derivatives, production process thereof, and herbicide compositions containing the derivatives” (SDS Biotech K.K., priority 2001, dated 2007).

Tests used:
Type in all cases: in vivo
Rice (Oryza sativa) = assay: Test Example 3 paddy field treatment, crop phytotoxicity; conditions: active ingredient 1 kg per hectare, index 0-5; for Herbicidal activity OS (phytotoxicity to rice): paddy field treatment, transplanted rice Koshihikari, wettable powder, 21st day after the dropping; for Herbicidal activity (phytotoxicity) OS: Table 6, paddy field treatment, transplanted rice, 21st day after dropping
Procedure: (§1) A plastic pot of 130 cm^2 was filled with paddy soil, and soil puddling was carried out to adjust the submerged depth to 4 cm. Subsequently, seeds of Echinochloa crusgalli, Monochoria vaginalis, Ammannia multiflora and Scirpus juncoides were sowed, and rice (Oryza sative, variety: Koshihikari) of two-leaf period was transplanted by 2 rice plants of 1 stub per pot at a depth of 3 cm. On the 10th day after the transplantation, the wettable powder prepared in Formulation Example 1 was diluted with water such that the amount of the active ingredient became 1 kg per hectare, and then dropped to diffuse on the water surface. On the 21st day after the dropping, observation and evaluation were carried out according to the aforesaid criteria.
(§2) Herbicidal activity was evaluated based on the following criteria.
(§3) • 5: herbicidal effect of not less than 90%, or phytotoxicity of 90% or more • 4: herbicidal effect of not less than 70% and less than 90%, or phytotoxicity of 70% or more and less than 90% • 3: herbicidal effect of not less than 50% and less than 70%, or phytotoxicity of 50% or more and less than 70% • 2: herbicidal effect of not less than 30% and less than 50%, or phytotoxicity of 30% or more and less than 50% • 1: herbicidal effect of not less than 10% and less than 30%, or phytotoxicity of 10% or more and less than 30% • 0: herbicidal effect of not less than 0% and less than 10%, or phytotoxicity of 0% or more and less than 10%

Echinochloa crusgalli = assay: Test Example 3 paddy field treatment; conditions: active ingredient 1 kg per hectare, index 0-5
Procedure: as §1, §2, §3

Monochoria vaginalis = assay: Test Example 3 paddy field treatment; conditions: active ingredient 1 kg per hectare, index 0-5
Procedure: as §1, §2, §3

Scirpus juncoides = assay: Test Example 3 paddy field treatment; conditions: active ingredient 1 kg per hectare, index 0-5
Procedure: as §1, §2, §3

Ammannia multiflora = assay: Test Example 3 paddy field treatment; conditions: active ingredient 1 kg per hectare, index 0-5
Procedure: as §1, §2, §3

[1] = test system: wheat (Triticum aestivum); assay: Test Example 1 upland field foliage treatment, crop phytotoxicity; conditions: Table 4, upland field foliage treatment, index 0-5
Procedure: (§4) A plastic pot of 130 cm^2 was filled with upland soil. Subsequently, weed seeds of Setaria viridis, Digitaria adscendens, Chenopodium album and Stellaria media, and crop seeds of soybean (Glycine max) and wheat (Triticum aestivum), were sowed and covered with soil of about 1 cm thickness. On the 14th day after the sowing, the wettable powder prepared in Formulation Example 1 was diluted with water such that the amount of the active ingredient became 1 kg per hectare, and then uniformly applied to the plant leaf surfaces. On the 21st day after the application, observation and evaluation were carried out according to the criteria described below.
as §2, §3

soybean (Glycine max) = assay: as above; conditions: Table 4, upland field foliage treatment, index 0-5
Procedure: as §4, §2, §3

Digitaria adscendens = assay: Test Example 1 upland field foliage treatment; conditions: Table 4, upland field foliage treatment, index 0-5
Procedure: as §4, §2, §3

Chenopodium album = assay: Test Example 1 upland field foliage treatment; conditions: Table 4, upland field foliage treatment, index 0-5
Procedure: as §4, §2, §3

Stellaria media = assay: Test Example 1 upland field foliage treatment; conditions: Table 4, upland field foliage treatment, index 0-5
Procedure: as §4, §2, §3

Setaria viridis = assay: Test Example 1 upland field foliage treatment; conditions: Table 4, upland field foliage treatment, index 0-5
Procedure: as §4, §2, §3

[2] = paddy field treatment, wettable powder, 21st day after the dropping
[3] = Table 6, paddy field treatment, 21st day after dropping

## CON=C(Cn1cc(C)c(-c2ccccc2)n1)C(=O)NC(C)c1ccccc1 (stereo not shown) [Compound 31]
Rice (Oryza sativa)
  Herbicidal activity OS (phytotoxicity to rice): 0 (herbicidal effect of not less than 0% and less than 10%, or phytotoxicity of 0% or more and less than 10%)
Echinochloa crusgalli; [2]
  Herbicidal activity EC: 3 (herbicidal effect of not less than 50% and less than 70%, or phytotoxicity of 50% or more and less than 70%)
Monochoria vaginalis; [2]
  Herbicidal activity MV: 5 (herbicidal effect of not less than 90%, or phytotoxicity of 90% or more)
Scirpus juncoides; [2]
  Herbicidal activity SJ: 4 (herbicidal effect of not less than 70% and less than 90%, or phytotoxicity of 70% or more and less than 90%)
Ammannia multiflora; [2]
  Herbicidal activity AM: 4 (herbicidal effect of not less than 70% and less than 90%, or phytotoxicity of 70% or more and less than 90%)

## CNC(=O)C(Cn1cc(C)c(-c2ccccc2C)n1)=NOC [Compound 35]
Rice (Oryza sativa)
  Herbicidal activity OS (phytotoxicity to rice): 0 (herbicidal effect of not less than 0% and less than 10%, or phytotoxicity of 0% or more and less than 10%)
Echinochloa crusgalli; [2]
  Herbicidal activity EC: 5 (herbicidal effect of not less than 90%, or phytotoxicity of 90% or more)
Monochoria vaginalis; [2]
  Herbicidal activity MV: 4 (herbicidal effect of not less than 70% and less than 90%, or phytotoxicity of 70% or more and less than 90%)
Scirpus juncoides; [2]
  Herbicidal activity SJ: 4 (herbicidal effect of not less than 70% and less than 90%, or phytotoxicity of 70% or more and less than 90%)
Ammannia multiflora; [2]
  Herbicidal activity AM: 4 (herbicidal effect of not less than 70% and less than 90%, or phytotoxicity of 70% or more and less than 90%)

## CNC(=O)C(Cn1cc(C)c(-c2ccc(C(C)C)cc2)n1)=NOC [Compound 38]
Rice (Oryza sativa)
  Herbicidal activity OS (phytotoxicity to rice): 0 (herbicidal effect of not less than 0% and less than 10%, or phytotoxicity of 0% or more and less than 10%)
Echinochloa crusgalli; [2]
  Herbicidal activity EC: 5 (herbicidal effect of not less than 90%, or phytotoxicity of 90% or more)
Monochoria vaginalis; [2]
  Herbicidal activity MV: 5 (herbicidal effect of not less than 90%, or phytotoxicity of 90% or more)
Scirpus juncoides; [2]
  Herbicidal activity SJ: 5 (herbicidal effect of not less than 90%, or phytotoxicity of 90% or more)
Ammannia multiflora; [2]
  Herbicidal activity AM: 5 (herbicidal effect of not less than 90%, or phytotoxicity of 90% or more)

## CNC(=O)C(Cn1cc(C)c(-c2ccc(C(F)(F)F)cc2)n1)=NOC [Compound 40]
Rice (Oryza sativa)
  Herbicidal activity OS (phytotoxicity to rice): 0 (herbicidal effect of not less than 0% and less than 10%, or phytotoxicity of 0% or more and less than 10%)
Echinochloa crusgalli; [2]
  Herbicidal activity EC: 5 (herbicidal effect of not less than 90%, or phytotoxicity of 90% or more)
Monochoria vaginalis; [2]
  Herbicidal activity MV: 5 (herbicidal effect of not less than 90%, or phytotoxicity of 90% or more)
Scirpus juncoides; [2]
  Herbicidal activity SJ: 5 (herbicidal effect of not less than 90%, or phytotoxicity of 90% or more)
Ammannia multiflora; [2]
  Herbicidal activity AM: 5 (herbicidal effect of not less than 90%, or phytotoxicity of 90% or more)

## CNC(=O)C(Cn1cc(C)c(-c2cccc(Br)c2)n1)=NOC [Compound 49]
Rice (Oryza sativa)
  Herbicidal activity OS (phytotoxicity to rice): 1 (herbicidal effect of not less than 10% and less than 30%, or phytotoxicity of 10% or more and less than 30%)
Echinochloa crusgalli; [2]
  Herbicidal activity EC: 5 (herbicidal effect of not less than 90%, or phytotoxicity of 90% or more)
Monochoria vaginalis; [2]
  Herbicidal activity MV: 5 (herbicidal effect of not less than 90%, or phytotoxicity of 90% or more)
Scirpus juncoides; [2]
  Herbicidal activity SJ: 5 (herbicidal effect of not less than 90%, or phytotoxicity of 90% or more)
Ammannia multiflora; [2]
  Herbicidal activity AM: 5 (herbicidal effect of not less than 90%, or phytotoxicity of 90% or more)

## CNC(=O)C(Cn1cc(C)c(-c2c(F)cccc2F)n1)=NOC [Compound 58, 2-methoxyimino-3-((2′,6′-difluorophenyl)-4-methyl-pyrazole)-1-yl-propanoic acid-N-methylamide]
Rice (Oryza sativa)
  Herbicidal activity (phytotoxicity) OS: 1 (herbicidal effect of not less than 10% and less than 30%, or phytotoxicity of 10% or more and less than 30%)
Echinochloa crusgalli; [3]
  Herbicidal activity EC: 5 (herbicidal effect of not less than 90%, or phytotoxicity of 90% or more)
Monochoria vaginalis; [3]
  Herbicidal activity MV: 5 (herbicidal effect of not less than 90%, or phytotoxicity of 90% or more)
Scirpus juncoides; [3]
  Herbicidal activity SJ: 5 (herbicidal effect of not less than 90%, or phytotoxicity of 90% or more)
Ammannia multiflora; [3]
  Herbicidal activity AM: 5 (herbicidal effect of not less than 90%, or phytotoxicity of 90% or more)

## CNC(=O)C(Cn1cc(C)c(-c2cc(F)cc(F)c2)n1)=NOC [Compound 60]
Rice (Oryza sativa)
  Herbicidal activity (phytotoxicity) OS: 0 (herbicidal effect of not less than 0% and less than 10%, or phytotoxicity of 0% or more and less than 10%)
Echinochloa crusgalli; [3]
  Herbicidal activity EC: 5 (herbicidal effect of not less than 90%, or phytotoxicity of 90% or more)
Monochoria vaginalis; [3]
  Herbicidal activity MV: 5 (herbicidal effect of not less than 90%, or phytotoxicity of 90% or more)
Scirpus juncoides; [3]
  Herbicidal activity SJ: 5 (herbicidal effect of not less than 90%, or phytotoxicity of 90% or more)
Ammannia multiflora; [3]
  Herbicidal activity AM: 5 (herbicidal effect of not less than 90%, or phytotoxicity of 90% or more)

## CNC(=O)C(Cn1cc(C)c(-c2cc(Cl)ccc2Cl)n1)=NOC [Compound 73]
Rice (Oryza sativa)
  Herbicidal activity (phytotoxicity) OS: 0 (herbicidal effect of not less than 0% and less than 10%, or phytotoxicity of 0% or more and less than 10%)
Echinochloa crusgalli; [3]
  Herbicidal activity EC: 5 (herbicidal effect of not less than 90%, or phytotoxicity of 90% or more)
Monochoria vaginalis; [3]
  Herbicidal activity MV: 5 (herbicidal effect of not less than 90%, or phytotoxicity of 90% or more)
Scirpus juncoides; [3]
  Herbicidal activity SJ: 4 (herbicidal effect of not less than 70% and less than 90%, or phytotoxicity of 70% or more and less than 90%)
Ammannia multiflora; [3]
  Herbicidal activity AM: 4 (herbicidal effect of not less than 70% and less than 90%, or phytotoxicity of 70% or more and less than 90%)

## CNC(=O)C(Cn1cc(C)c(-c2ccc(OC)c(F)c2)n1)=NOC [Compound 76]
Rice (Oryza sativa)
  Herbicidal activity (phytotoxicity) OS: 0 (herbicidal effect of not less than 0% and less than 10%, or phytotoxicity of 0% or more and less than 10%)
Echinochloa crusgalli; [3]
  Herbicidal activity EC: 5 (herbicidal effect of not less than 90%, or phytotoxicity of 90% or more)
Monochoria vaginalis; [3]
  Herbicidal activity MV: 5 (herbicidal effect of not less than 90%, or phytotoxicity of 90% or more)
Scirpus juncoides; [3]
  Herbicidal activity SJ: 5 (herbicidal effect of not less than 90%, or phytotoxicity of 90% or more)
Ammannia multiflora; [3]
  Herbicidal activity AM: 5 (herbicidal effect of not less than 90%, or phytotoxicity of 90% or more)

## CNC(=O)C(Cn1cc(C)c(-c2ccc(C(F)(F)F)cc2F)n1)=NOC [Compound 85]
[1]
  Herbicidal activity (phytotoxicity) TA: Wheat (Triticum aestivum): 0 (herbicidal effect of not less than 0% and less than 10%, or phytotoxicity of 0% or more and less than 10%)
Soybean (Glycine max)
  Herbicidal activity (phytotoxicity) GM: Soybean (Glycine max): 0 (herbicidal effect of not less than 0% and less than 10%, or phytotoxicity of 0% or more and less than 10%)
Digitaria adscendens
  Herbicidal activity DA: Digitaria adscendens: 4 (herbicidal effect of not less than 70% and less than 90%, or phytotoxicity of 70% or more and less than 90%)
Chenopodium album
  Herbicidal activity CA: Chenopodium album: 5 (herbicidal effect of not less than 90%, or phytotoxicity of 90% or more)
Stellaria media
  Herbicidal activity SM: Stellaria media: 5 (herbicidal effect of not less than 90%, or phytotoxicity of 90% or more)
Setaria viridis
  Herbicidal activity SV: Setaria viridis: 4 (herbicidal effect of not less than 70% and less than 90%, or phytotoxicity of 70% or more and less than 90%)

## CNC(=O)C(Cn1cc(C)c(-c2ccc(C(F)(F)F)c(F)c2)n1)=NOC [Compound 87]
Rice (Oryza sativa)
  Herbicidal activity (phytotoxicity) OS: 0 (herbicidal effect of not less than 0% and less than 10%, or phytotoxicity of 0% or more and less than 10%)
Echinochloa crusgalli; [3]
  Herbicidal activity EC: 5 (herbicidal effect of not less than 90%, or phytotoxicity of 90% or more)
Monochoria vaginalis; [3]
  Herbicidal activity MV: 5 (herbicidal effect of not less than 90%, or phytotoxicity of 90% or more)
Scirpus juncoides; [3]
  Herbicidal activity SJ: 5 (herbicidal effect of not less than 90%, or phytotoxicity of 90% or more)
Ammannia multiflora; [3]
  Herbicidal activity AM: 5 (herbicidal effect of not less than 90%, or phytotoxicity of 90% or more)

## CNC(=O)C(Cn1cc(C)c(-c2ccc(F)c(C(F)(F)F)c2)n1)=NOC [Compound 90]
Rice (Oryza sativa)
  Herbicidal activity (phytotoxicity) OS: 0 (herbicidal effect of not less than 0% and less than 10%, or phytotoxicity of 0% or more and less than 10%)
Echinochloa crusgalli; [3]
  Herbicidal activity EC: 5 (herbicidal effect of not less than 90%, or phytotoxicity of 90% or more)
Monochoria vaginalis; [3]
  Herbicidal activity MV: 5 (herbicidal effect of not less than 90%, or phytotoxicity of 90% or more)
Scirpus juncoides; [3]
  Herbicidal activity SJ: 4 (herbicidal effect of not less than 70% and less than 90%, or phytotoxicity of 70% or more and less than 90%)
Ammannia multiflora; [3]
  Herbicidal activity AM: 5 (herbicidal effect of not less than 90%, or phytotoxicity of 90% or more)
